Laboratory results from US9181259B2 (LEO PHARMA A/S, priority 2012, dated 2015).
Where a name gives a salt, the structure may show the parent alone.

How the values were obtained:
[1] = target: T1, NK1 receptor (Homo sapiens, UniProt P25103); experiment: NK1 receptor mediated intracellular [Ca2+] mobilization in U251 MG cells using FLIPR; assay type: cell-based; conditions: antagonist potency against Substance P (EC80), normalized to 100 nM Aprepitant, read-out: U251MG (FLIPR pIC50) (converted)
T1 construct: Measurement of NK1 Receptor Mediated Intracellular [Ca^2+]; Mobilization in U251 MG Cells Using FLIPR; endogenous in cells; host or cells: U251 MG cells
T1 sequence (P25103 whole entry): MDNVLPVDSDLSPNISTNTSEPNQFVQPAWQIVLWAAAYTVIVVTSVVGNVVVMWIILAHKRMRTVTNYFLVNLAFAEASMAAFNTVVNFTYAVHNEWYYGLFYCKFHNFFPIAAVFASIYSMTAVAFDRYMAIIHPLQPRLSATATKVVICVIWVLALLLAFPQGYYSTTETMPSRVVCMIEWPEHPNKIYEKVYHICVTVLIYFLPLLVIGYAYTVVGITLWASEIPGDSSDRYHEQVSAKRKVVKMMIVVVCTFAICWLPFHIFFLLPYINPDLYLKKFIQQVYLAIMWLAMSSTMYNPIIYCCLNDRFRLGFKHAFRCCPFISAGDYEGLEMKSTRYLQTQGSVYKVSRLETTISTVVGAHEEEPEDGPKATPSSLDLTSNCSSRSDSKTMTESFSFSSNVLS
Method in brief: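 Fluo-4-loaded U251 MG cells were preincubated with compound (0.5% DMSO final), with any agonist effect read for 5 min, then 10 min more at 37 °C before Substance P at EC80. Peak FLIPR fluorescence change was read, and IC50 came from a four-parameter fit as the midpoint between fitted top and bottom.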

[2] = Hepatic intrinsic clearance following incubation in human liver microsomes; assay type: in vitro ADME; conditions: NADPH regenerating system, 0-30 min, 37 °C
Procedure: Hepatic Extraction Ratio from Hepatic Intrinsic Clearance Following Incubation in Human Liver Microsomes
The general procedure consists of an automated incubation system and LC-MS/MS analysis with human liver microsomes. Human liver microsomes are thawed rapidly in a waterbath at 37° C. and kept on ice until use. The human liver microsomes are diluted with 50 mM potassium phosphate buffer pH 7.4 to a protein concentration of 0.55 mg/mL. Test compounds and positive controls (Verapamil and Dextromethorphan, positive controls for CYP3A4 for CYP2D6 isoforms, respectively) are dissolved in methanol (or other appropriate solvent, if necessary) in order to obtain a 5 mM solution which is further diluted to the concentration of 50 μM. The stock solutions are prepared immediately before the test.
5 μL of 50 μM test compounds and controls are added to 445 μL-of the 0.55 mg/mL microsomes solution and the incubation mixture are pre-warmed at 37° C. for 5 minutes.
The incubation reactions are initiated by adding 50 μL of pre-warmed NADPH regenerating system to the incubation mixtures. 50 μL-aliquots will be taken from the incubation mixtures at: 0, 3, 6, 9, 15 and 30 minutes and the reactions are stopped by adding 100 μL of ACN containing Rolipram, used as generic Internal Standard (1S). Samples are then diluted with 120 μL of Milli-Q water and centrifuged at 3000 rpm for 10 minutes, prior the LC-MS/MS analysis.
The integrated peak areas for test compounds at the selected time points are divided by the respective peak areas of the IS and the percent of parent remaining is calculated by normalizing the peak area ratio of parent to IS at 0 min. Observed rate constant (kobs) for parent degradation is calculated by determining the slope of the line of the graph of the natural log of percentage parent remaining versus time of incubation. From the rate of depletion (min-1) and volume of the incubation (mL), clearance is estimated. This is scaled for the protein in the incubation relative to that in the intact liver, for all species (mL/min/g liver).
Values for the Human in vitro Clint are expressed as mL/min/g liver.
Assuming a liver weight of 25.7 g/kg and a liver blood flow of 20.7 mL/min/kg, the hepatic extraction ratio, Eh, can be derived from the Human in vitro Clint:
E.g. a Human in vitro Clint of 2.4 mL/min/g liver corresponds to a hepatic extraction ratio of 75%.
Some compounds of the present invention were tested according to example 121.

Row | IC50 [1] | Human in vitro Clint (mL/min/g liver) [2] | SMILES
1 | 0.0631 nM | 13 mL/min/g liver | CCc1cc([C@@H](C)N(C)C(=O)N2CCN3C(=O)C(CCO)(CCO)C[C@H]3[C@@H]2c2ccccc2C)cc(C(F)(F)F)c1 [Compound 110, (1S,8aS)-N-((R)-1-(3-ethyl-5-(trifluoromethyl)phenyl)ethyl)-7,7-bis(2-hydroxyethyl)-N-methyl-6-oxo-1-o-tolylhexahydropyrrolo[1,2-a]pyrazine-2(1H)-carboxamide]
2 | 0.0513 nM | 0.8 mL/min/g liver | Cc1ccccc1C1C2CC(CO)C(=O)N2CCN1C(=O)N(C)Cc1cc(C(F)(F)F)cc(C(F)(F)F)c1 (single isomer, unassigned) [Compound 22, N-{[3,5-bis(trifluoromethyl)phenyl]methyl}-7-(hydroxymethyl)-N-methyl-1-(2-methylphenyl)-6-oxo-octahydropyrrolo[1,2-a]piperazine-2-carboxamide]
3 | 0.107 nM | 9.2 mL/min/g liver | Cc1cc([C@@H](C)N(C)C(=O)N2CCN3C(=O)CC[C@H]3[C@@H]2c2ccccc2C)cc(C(F)(F)F)c1 [Compound 107, (1S,8aS)-N-methyl-N-((R)-1-(3-methyl-5-(trifluoromethyl)phenyl)ethyl)-6-oxo-1-o-tolylhexahydropyrrolo[1,2-a]pyrazine-2(1H)-carboxamide]
4 | 0.155 nM | 2.1 mL/min/g liver | COc1cc([C@@H](CO)N(C)C(=O)N2CCN3C(=O)C(CCO)(CCO)C[C@H]3[C@@H]2c2ccccc2C)cc(C(F)(F)F)c1 [Compound 95, (1S,8aS)-N-((S)-2-hydroxy-1-(3-methoxy-5-(trifluoromethyl)phenyl)ethyl)-7,7-bis(2-hydroxyethyl)-N-methyl-6-oxo-1-o-tolylhexahydropyrrolo[1,2-a]pyrazine-2(1H)-carboxamide]
5 | 0.166 nM | 5.4 mL/min/g liver | Cc1ccccc1[C@H]1[C@@H]2CC(CCO)(CCO)C(=O)N2CCN1C(=O)N(C)[C@@H](C)c1cc(C(F)(F)F)cc(C(F)(F)F)c1 [Compound 99, (1S,8aS)-N-((S)-1-(3,5-bis(trifluoromethyl)phenyl)ethyl)-7,7-bis(2-hydroxyethyl)-N-methyl-6-oxo-1-o-tolylhexahydropyrrolo[1,2-a]pyrazine-2(1H)-carboxamide]
6 | 0.0933 nM | 0.4 mL/min/g liver | Cc1ccccc1C1C2CC3(CCN(C)CC3)C(=O)N2CCN1C(=O)N(C)Cc1cc(C(F)(F)F)cc(C(F)(F)F)c1 (single isomer, unassigned) [Compound 47, N-{[3,5-bis(trifluoromethyl)phenyl]methyl}-N,1-dimethyl-4′-(2-methylphenyl)-1′-oxo-hexahydro-1′H-spiro[piperidine-4,2′-pyrrolo[1,2-a]piperazine]-5′-carboxamide]
7 | 0.24 nM | 1.2 mL/min/g liver | Cc1ccccc1[C@H]1[C@@H]2CC3(CCN(C)CC3)C(=O)N2CCN1C(=O)N(C)[C@H](C)c1cc(C(F)(F)F)cc(C(F)(F)F)c1 [Compound 105, (1′S,8a′S)-N-((R)-1-(3,5-bis(trifluoromethyl)phenyl)ethyl)-N,1-dimethyl-6′-oxo-1′-o-tolyltetrahydro-1′H-spiro[piperidine-4,7′-pyrrolo[1,2-a]pyrazine]-2′(6′H)-carboxamide, formic acid salt]
8 | 0.0794 nM | 4.8 mL/min/g liver | Cc1ccccc1[C@H]1[C@@H]2CC(CCO)(CCO)C(=O)N2CCN1C(=O)N(C)[C@H](CO)c1cccc(C(F)(F)F)c1 [Compound 96, (1S,8aS)-N-((S)-2-hydroxy-1-(3-(trifluoromethyl)phenyl)ethyl)-7,7-bis(2-hydroxyethyl)-N-methyl-6-oxo-1-o-tolylhexahydropyrrolo[1,2-a]pyrazine-2(1H)-carboxamide]
9 | 0.525 nM | 3.7 mL/min/g liver | Cc1ccccc1C1C2CC(CCO)(CCO)C(=O)N2CCN1C(=O)N(C)Cc1cc(C(F)(F)F)cc(C(F)(F)F)c1 (single isomer, unassigned) [Compound 43, N-{[3,5-bis(trifluoromethyl)phenyl]methyl}-7,7-bis(2-hydroxyethyl)-N-methyl-1-(2-methylphenyl)-6-oxo-octahydropyrrolo[1,2-a]piperazine-2-carboxamide]
10 | 0.0316 nM | 56 mL/min/g liver | Cc1ccccc1[C@H]1[C@@H]2CC(CCO)(CCO)C(=O)N2CCN1C(=O)N(C)[C@H](C)c1cc(C(C)C)cc(C(F)(F)F)c1 [Compound 113, (1S,8aS)-7,7-bis(2-hydroxyethyl)-N-((R)-1-(3-isopropyl-5-(trifluoromethyl)phenyl)ethyl)-N-methyl-6-oxo-1-o-tolylhexahydropyrrolo[1,2-a]pyrazine-2(1H)-carboxamide]
11 | 0.115 nM | 0.19 mL/min/g liver | Cc1ccccc1[C@H]1[C@@H]2CC3(CCNCC3)C(=O)N2CCN1C(=O)N(C)[C@H](C)c1cc(C(F)(F)F)cc(C(F)(F)F)c1 [Compound 106, (1′S,8a′S)-N-((R)-1-(3,5-bis(trifluoromethyl)phenyl)ethyl)-N-methyl-6′-oxo-1′-o-tolyltetrahydro-1′H-spiro[piperidine-4,7′-pyrrolo[1,2-a]pyrazine]-2′(6′(6′H)-carboxamide, formic acid salt]
12 | 0.105 nM | 14 mL/min/g liver | Cc1ccccc1[C@H]1[C@@H]2CC(CCO)(CCO)C(=O)N2CCN1C(=O)N(C)Cc1cc(Cl)cc(C(F)(F)F)c1 [Compound 79, (1S,8aS)-N-(3-chloro-5-(trifluoromethyl)benzyl)-7,7-bis(2-hydroxyethyl)-N-methyl-6-oxo-1-o-tolylhexahydropyrrolo[1,2-a]pyrazine-2(1H)-carboxamide]
13 | 1.38 nM | 9.5 mL/min/g liver | Cc1ccccc1C1C2CCC(=O)N2CCN1C(=O)N(C)Cc1cc(F)cc(C(F)(F)F)c1 (single isomer, unassigned) [Compound 3, N-{[3-fluoro-5-(trifluoromethyl)phenyl]methyl}-N-methyl-1-(2-methylphenyl)-6-oxo-octahydropyrrolo[1,2-a]piperazine-2-carboxamide]
14 | 0.117 nM | 4.0 mL/min/g liver | Cc1ccccc1[C@H]1[C@@H]2CC(CCO)(CCO)C(=O)N2CCN1C(=O)N(C)[C@H](C)c1cc(C(F)F)cc(C(F)(F)F)c1 [Compound 98, (1S,8aS)-N-((R)-1-(3-(difluoromethyl)-5-(trifluoromethyl)phenyl)ethyl)-7,7-bis(2-hydroxyethyl)-N-methyl-6-oxo-1-o-tolylhexahydropyrrolo[1,2-a]pyrazine-2(1H)-carboxamide]
15 | 0.0794 nM | 17 mL/min/g liver | Cc1cc([C@@H](C)N(C)C(=O)N2CCN3C(=O)C(CCO)(CCO)C[C@H]3[C@@H]2c2ccccc2C)cc(C(F)(F)F)c1 [Compound 85, (1S,8aS)-7,7-bis(2-hydroxyethyl)-N-methyl-N-((R)-1-(3-methyl-5-(trifluoromethyl)phenyl)ethyl)-6-oxo-1-o-tolylhexahydropyrrolo[1,2-a]pyrazine-2(1H)-carboxamide]
16 | 0.0501 nM | 3.4 mL/min/g liver | Cc1ccccc1[C@H]1[C@@H]2CC(CCO)(CCO)C(=O)N2CCN1C(=O)N(C)[C@H](CO)c1cc(F)cc(C(F)(F)F)c1 [Compound 94, (1S,8aS)-N-((S)-1-(3-fluoro-5-(trifluoromethyl)phenyl)-2-hydroxyethyl)-7,7-bis(2-hydroxyethyl)-N-methyl-6-oxo-1-o-tolylhexahydropyrrolo[1,2-a]pyrazine-2(1H)-carboxamide]
17 | 0.0316 nM | 4.3 mL/min/g liver | Cc1ccccc1[C@H]1[C@@H]2CC(CO)(CO)C(=O)N2CCN1C(=O)N(C)[C@H](C)c1cc(Cl)cc(C(F)(F)F)c1 [Compound 108, (1S,8aS)-N-((R)-1-(3-chloro-5-(trifluoromethyl)phenyl)ethyl)-7,7-bis(hydroxymethyl)-N-methyl-6-oxo-1-o-tolylhexahydropyrrolo[1,2-a]pyrazine-2(1H)-carboxamide]
